# Legend:
# [1] = UV stability, irradiation at 366 nm on a DMSO thin film, LCMS; type: physicochemical; conditions: 366 nm emission, 250 μM in DMSO thin film, FIG. 3m
# Procedure: A different, more rapid experimental setup was used to investigate a broader set of compounds in comparison to GW4064. The substances were dissolved in reagent grade DMSO (99.5%, Karl Roth) at a concentration of 250 μM. DMSO solution was spread over a silica glass slide to a depth of approximately 2 mm and irradiated using a UV lamp set to 366 nm emission (Benda Instruments, Wiesloch Germany) using an 8 W tube set approximately 2.5 cm from the target materials. The solution was sampled prior to irradiation (T=0 min) and at various intervals thereafter. Stocks and samples were maintained in foil wrapped tubes out of direct light. Samples were injected (2 μL) directly onto a LCMS System for analysis without any further preparation.
# [2] = biological target: T1, human FXR alpha ligand binding domain (Homo sapiens, UniProt Q96RI1); test: FRET activity assay (ligand mediated cofactor peptide interaction, LANCE); type: biochemical; conditions: potency range
# T1 construct: made in house; host or cells: E. coli BL21(DE3), vector pDEST15
# T1 sequence (Q96RI1 187-472 isoform Q96RI1-2): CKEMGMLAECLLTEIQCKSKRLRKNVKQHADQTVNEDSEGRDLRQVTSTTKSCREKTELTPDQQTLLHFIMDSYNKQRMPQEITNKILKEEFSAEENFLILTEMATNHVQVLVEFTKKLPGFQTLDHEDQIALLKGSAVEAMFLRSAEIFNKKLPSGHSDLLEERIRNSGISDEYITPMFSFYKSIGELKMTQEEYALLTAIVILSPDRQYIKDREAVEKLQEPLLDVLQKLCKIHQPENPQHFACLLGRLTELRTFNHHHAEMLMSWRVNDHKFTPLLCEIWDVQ
# Procedure: Determination of a ligand mediated cofactor peptide interaction to quantify ligand binding to the nuclear receptor FXR was performed as follows: Preparation of human FXR alpha ligand binding domain: The human FXRalpha LBD was expressed in E. coli strain BL21(DE3) as an N-terminally GST tagged fusion protein. The DNA encoding the FXR ligand binding domain was cloned into vector pDEST15 (Invitrogen). Expression was under control of an IPTG inducible T7 promoter. The amino acid boundaries of the ligand binding domain were amino acids 187-472 of Database entry NM_005123 (RefSeq). Expression and purification of the FXR-LBD: An overnight preculture of a transformed E. coli strain was diluted 1:20 in LB-Ampicillin medium and grown at 30° C. to an optical density of OD600=0.4-0.6. Gene expression was then induced by addition of 0.5 mM IPTG. Cells were incubated an additional 6 h at 30° C., 180 rpm. Cells were collected by centrifugation (7000×g, 7 min, room temperature). Per liter of original cell culture, cells were resuspended in 10 mL lysis buffer (50 mM Glucose, 50 mM Tris pH 7.9, 1 mM EDTA and 4 mg/mL lysozyme) and left on ice for 30 min. Cells were then subjected to sonication and cell debris removed via centrifugation (22000×g, 30 min, 4° C.). Per 10 mL of supernatant 0.5 mL prewashed Glutathione 4B sepharose slurry (Qiagen) was added and the suspension kept slowly rotating for 1 h at 4° C. Glutathione 4B sepharose beads were pelleted by centrifugation (2000×g, 15 sec, 4° C.) and washed twice in wash buffer (25 mM Tris, 50 mM KCl, 4 mM MgCl2 and 1M NaCl). The pellet was resuspended in 3 mL elution buffer per liter of original culture (elution buffer: 20 mM Tris, 60 mM KCl, 5 mM MgCl2 and 80 mM glutathione added immediately prior to use as powder). The suspension was left rotating for 15 min at 4° C., the beads pelleted and eluted again with half the volume of elution buffer than the first time. The eluates were pooled and dialysed overnight in 20 mM Hepes buffer (pH 7.5) containing 60 mM KCl, 5 mM MgCl2 as well as 1 mM dithiothreitol and 10% (v/v) glycerol. The protein was analysed by SDS-Page.
# The method measures the ability of putative ligands to modulate the interaction between the purified bacterial expressed FXR ligand binding domain (LBD) and a synthetic biotinylated peptide based on residues 676-700 of SRC-1 (LCD2, 676-700). […] The ligand binding domain (LBD) of FXR was expressed as fusion protein with GST in BL-21 cells using the vector pDEST15. Cells were lysed by sonication, and the fusion proteins purified over glutathione sepharose (Pharmacia) according to the manufacturers instructions. For screening of compounds for their influence on the FXR-peptide interaction, the Perkin Elmer LANCE technology was applied. This method relies on the binding dependent energy transfer from a donor to an acceptor fluorophor attached to the binding partner of interest. For ease of handling and reduction of background from compound fluorescence LANCE technology makes use of generic fluorophore labels and time resolved detection Assays were done in a final volume of 25 μL in a 384 well plate, in a Tris-based buffer (20 mM Tris-HCl pH 7.5; 60 mM KCl, 5 mM MgCl2; 35 ng/μL BSA), containing 20-60 ng/well recombinantly expressed FXR-LBD fused to GST, 200-600 nM N-terminally biotinylated peptide, representing SRC1 aminoacids 676-700, 200 ng/well Streptavidin-xIAPC conjugate (Prozyme) and 6-10 ng/well Eu W1024—antiGST (Perkin Elmer). DMSO content of the samples was kept at 1%. After generation of the assay mix and diluting the potentially FXR modulating ligands, the assay was equilibrated for one hour in the dark at room temperature in FIA-plates black 384 well (Greiner). The LANCE signal was detected by a Perkin Elmer VICTOR2V™ Multilabel Counter. The results were visualized by plotting the ratio between the emitted light at 665 and 615 nm.
# [3] = biological target: T2, FXR ligand binding domain (Homo sapiens, UniProt Q96RI1); test: Mammalian One Hybrid (M1H) Gal4 reporter assay in HEK293 cells; type: cell-based; conditions: potency range
# T2 construct: expressed in transfected cells; host or cells: HEK293 cells (DSMZ), transient transfection of pCMV-BD-FXR-LBD
# T2 sequence (Q96RI1 187-472 isoform Q96RI1-2): T1 sequence (Q96RI1 187-472 isoform Q96RI1-2)
# Procedure: Determination of a ligand mediated Gal4 promoter driven transactivation to quantify ligand binding mediated activation of FXR was performed as follows: The cDNA part encoding the FXR ligand binding domain was cloned into vector pCMV-BD (Stratagene) as a fusion to the yeast GAL4 DNA binding domain under the control of the CMV promoter. The amino acid boundaries of the ligand binding domain were amino acids 187-472 of Database entry NM_005123 (RefSeq). The plasmid pFR-Luc (Stratagene) was used as the reporter plasmid, containing a synthetic promoter with five tandem repeats of the yeast GAL4 binding sites, driving the expression of the Photinus pyralis (American firefly) luciferase gene as the reporter gene. In order to improve experimental accuracy the plasmid pRL-CMV (Promega) was cotransfected. pRL-CMV contains the constitutive CMV promoter, controlling the expression of the Renilla reniformis luciferase. All Gal4 reporter gene assays were done in HEK293 cells (obtained from DSMZ, Braunschweig, Germany) grown in MEM with L-Glutamine and Earle's BSS supplemented with 10% fetal bovine serum, 0.1 mM nonessential amino acids, 1 mM sodium pyruvate, and 100 units Penicillin/[…] per mL at 37° C. in 5% CO2. Medium and supplements were obtained from Invitrogen. For the assay, […] were plated per well in 96 well plates in 100 μL per well MEM without Phenol Red and L-Glutamine and with Earle's BSS supplemented with 10% charcoal/dextran treated FBS (HyClone, South Logan, Utah), 0.1 mM nonessential amino acids, 2 mM glutamine, 1 mM sodium pyruvate, and 100 units Penicillin/[…] per mL, incubated at 37° C. in 5% CO2. The following day the cells were >90% confluence. Medium was removed and cells were transiently transfected using 20 μL per well of a OptiMEM—polyethylene-imine-based transfection-reagent (OptiMEM, Invitrogen; Polyethyleneimine, Aldrich Cat No. 40, 827-7) including the three plasmids described above. MEM with the same composition as used for plating cells was added 2-4 h after addition of transfection mixture. Then compound stocks, prediluted in MEM were added (final vehicle concentration not exceeding 0.1%). Cells were incubated for additional 16 h before firefly and renilla luciferase activities were measured sequentially in the same cell extract using a Dual-Light-Luciferase-Assay system (Dyer et al., Anal. Biochem. 2000, 282, 158-161). All experiments were done in triplicates.
Compound,photostability compared to GW4064 [1],EC50 [2] [nM],EC50 [3] [nM]
"O=C(O)c1ccc(C2CC2c2ccc(OCc3c(-c4c(Cl)cccc4Cl)noc3C3CC3)cc2Cl)cc1 (single isomer, unassigned; (-)) [Example 12c, (−)-4-(2-(2-chloro-4-((5-cyclopropyl-3-(2,6-dichlorophenyl)isoxazol-4-yl)methoxy)phenyl)cyclopropyl)benzoic acid]",higher photostability,10 to 100,10 to 100
"CS(=O)(=O)NC(=O)c1ccc(C2CC2c2ccc(OCc3c(-c4c(Cl)cccc4Cl)noc3C3CC3)cc2Cl)cc1 (centres unmarked) [Example 14, 4-(2-(2-chloro-4-((5-cyclopropyl-3-(2,6-dichlorophenyl)isoxazol-4-yl)methoxy)phenyl)cyclopropyl)-N-(methylsulfonyl)benzamide]",higher photostability,> 100,10 to 100
"Clc1cc(OCc2c(-c3c(Cl)cccc3Cl)noc2C2CC2)ccc1C1CC1c1ccc(-c2nnn[nH]2)cc1 (centres unmarked) [Example 16, 4-((4-(2-(4-(1H-tetrazol-5-yl)phenyl)cyclopropyl)-3-chlorophenoxy)methyl)-5-cyclopropyl-3-(2,6-dichlorophenyl)isoxazole]",higher photostability,> 100,10 to 100
"CC(C)n1nc(C(=O)O)cc1C1CC1c1ccc(OCc2c(-c3c(Cl)cccc3Cl)noc2C2CC2)cc1Cl (centres unmarked) [Example 20, 5-(2-(2-chloro-4-((5-cyclopropyl-3-(2,6-dichlorophenyl)isoxazol-4-yl)methoxy)phenyl)cyclopropyl)-1-isopropyl-1H-pyrazole-3-carboxylic acid]",higher photostability,< 10,< 10
"CC(C)n1nc(C(=O)O)c2ccc(C3CC3c3ccc(OCc4c(-c5c(Cl)cccc5Cl)noc4C4CC4)cc3Cl)cc21 (centres unmarked) [Example 21, 6-(2-(2-chloro-4-((5-cyclopropyl-3-(2,6-dichlorophenyl)isoxazol-4-yl)methoxy)phenyl)cyclopropyl)-1-isopropyl-1H-indazole-3-carboxylic acid]",,< 10,< 10
"Cc1cc(C2CC2c2ccc(OCc3c(-c4c(Cl)cccc4Cl)noc3C3CC3)cc2Cl)cc(C)c1C(=O)O (centres unmarked) [Example 23, 4-(2-(2-chloro-4-((5-cyclopropyl-3-(2,6-dichlorophenyl)isoxazol-4-yl)methoxy)phenyl)cyclopropyl)-2,6-dimethylbenzoic acid]",,10 to 100,< 10
O=C(O)c1ccc(C2CC2c2ccc(OCc3c(-c4ccccc4OC(F)(F)F)noc3C3CC3)cc2Cl)cc1 (centres unmarked) [Example 24],,> 100,> 100
"O=C(O)CNC(=O)c1ccc(C2CC2c2ccc(OCc3c(-c4c(Cl)cccc4Cl)noc3C3CC3)cc2Cl)cc1 (centres unmarked) [Example 28, 2-(4-(2-(2-chloro-4-((5-cyclopropyl-3-(2,6-dichlorophenyl)isoxazol-4-yl)methoxy)phenyl)cyclopropyl)benzamido)acetic acid]",,> 100,> 100

# — patent US8952042B2, “FXR (NR1H4) binding and activity modulating compounds” (Phenex Pharmaceuticals AG, priority 2009, dated 2015)
